Assay results published in ChEMBL document CHEMBL3991601, “The target landscape of clinical kinase drugs” (Science, 2017).
The source made the active and inactive calls. Cut-off read from the data, not from the text of the source, for most assays here: actives have a measured Kd and inactives only a lower limit.

target: T1, DNA replication licensing factor MCM4 (Homo sapiens, UniProt P33991)
T1 sequence (P33991 whole entry): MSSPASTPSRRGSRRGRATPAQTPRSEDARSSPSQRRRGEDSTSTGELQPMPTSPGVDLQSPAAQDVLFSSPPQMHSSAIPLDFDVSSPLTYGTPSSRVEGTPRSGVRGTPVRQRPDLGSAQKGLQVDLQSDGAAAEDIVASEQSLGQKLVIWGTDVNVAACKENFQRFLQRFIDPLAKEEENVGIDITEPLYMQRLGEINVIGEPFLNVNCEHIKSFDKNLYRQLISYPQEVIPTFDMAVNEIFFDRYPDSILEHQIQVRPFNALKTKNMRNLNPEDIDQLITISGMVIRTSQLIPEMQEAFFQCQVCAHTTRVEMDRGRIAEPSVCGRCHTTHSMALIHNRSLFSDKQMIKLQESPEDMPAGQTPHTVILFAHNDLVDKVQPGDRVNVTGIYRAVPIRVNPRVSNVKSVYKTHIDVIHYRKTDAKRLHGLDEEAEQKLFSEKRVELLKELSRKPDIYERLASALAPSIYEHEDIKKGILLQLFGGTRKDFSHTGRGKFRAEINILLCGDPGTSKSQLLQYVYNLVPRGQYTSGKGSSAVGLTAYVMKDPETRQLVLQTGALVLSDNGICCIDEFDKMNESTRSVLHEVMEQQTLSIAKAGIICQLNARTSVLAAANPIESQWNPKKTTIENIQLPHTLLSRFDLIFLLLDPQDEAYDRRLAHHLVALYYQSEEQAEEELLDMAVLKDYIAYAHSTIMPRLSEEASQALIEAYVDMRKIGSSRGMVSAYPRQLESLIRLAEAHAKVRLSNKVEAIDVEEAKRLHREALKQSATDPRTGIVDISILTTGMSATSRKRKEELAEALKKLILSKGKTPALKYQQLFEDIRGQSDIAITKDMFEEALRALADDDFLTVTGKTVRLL
Note: in the data inactive means no Kd found up to 30 µM.

SMILES | Kd
CCCS(=O)(=O)Nc1ccc(F)c(C(=O)c2c[nH]c3ncc(-c4ccc(Cl)cc4)cc23)c1F [VEMURAFENIB] | > 30 µM (inactive)
CC[C@@H]1C(=O)N(C)c2cnc(Nc3ccc(C(=O)N[C@H]4CC[C@H](N5CCN(CC6CC6)CC5)CC4)cc3OC)nc2N1C(C)C [VOLASERTIB] | > 30 µM (inactive)
CCn1c(=O)c(-c2cc[nH]n2)cc2c(C)nc(N)nc21 [VOXTALISIB] | > 30 µM (inactive)

target: Proto-oncogene tyrosine-protein kinase Src (Homo sapiens, UniProt P12931)

SMILES | Kd
CCCS(=O)(=O)Nc1ccc(F)c(C(=O)c2c[nH]c3ncc(-c4ccc(Cl)cc4)cc23)c1F [VEMURAFENIB] | > 30 µM (inactive)
CC[C@@H]1C(=O)N(C)c2cnc(Nc3ccc(C(=O)N[C@H]4CC[C@H](N5CCN(CC6CC6)CC5)CC4)cc3OC)nc2N1C(C)C [VOLASERTIB] | > 30 µM (inactive)
CCn1c(=O)c(-c2cc[nH]n2)cc2c(C)nc(N)nc21 [VOXTALISIB] | > 30 µM (inactive)

target: Rho-associated protein kinase 1 (Homo sapiens, UniProt Q13464)
Sequence (Q13464 whole entry): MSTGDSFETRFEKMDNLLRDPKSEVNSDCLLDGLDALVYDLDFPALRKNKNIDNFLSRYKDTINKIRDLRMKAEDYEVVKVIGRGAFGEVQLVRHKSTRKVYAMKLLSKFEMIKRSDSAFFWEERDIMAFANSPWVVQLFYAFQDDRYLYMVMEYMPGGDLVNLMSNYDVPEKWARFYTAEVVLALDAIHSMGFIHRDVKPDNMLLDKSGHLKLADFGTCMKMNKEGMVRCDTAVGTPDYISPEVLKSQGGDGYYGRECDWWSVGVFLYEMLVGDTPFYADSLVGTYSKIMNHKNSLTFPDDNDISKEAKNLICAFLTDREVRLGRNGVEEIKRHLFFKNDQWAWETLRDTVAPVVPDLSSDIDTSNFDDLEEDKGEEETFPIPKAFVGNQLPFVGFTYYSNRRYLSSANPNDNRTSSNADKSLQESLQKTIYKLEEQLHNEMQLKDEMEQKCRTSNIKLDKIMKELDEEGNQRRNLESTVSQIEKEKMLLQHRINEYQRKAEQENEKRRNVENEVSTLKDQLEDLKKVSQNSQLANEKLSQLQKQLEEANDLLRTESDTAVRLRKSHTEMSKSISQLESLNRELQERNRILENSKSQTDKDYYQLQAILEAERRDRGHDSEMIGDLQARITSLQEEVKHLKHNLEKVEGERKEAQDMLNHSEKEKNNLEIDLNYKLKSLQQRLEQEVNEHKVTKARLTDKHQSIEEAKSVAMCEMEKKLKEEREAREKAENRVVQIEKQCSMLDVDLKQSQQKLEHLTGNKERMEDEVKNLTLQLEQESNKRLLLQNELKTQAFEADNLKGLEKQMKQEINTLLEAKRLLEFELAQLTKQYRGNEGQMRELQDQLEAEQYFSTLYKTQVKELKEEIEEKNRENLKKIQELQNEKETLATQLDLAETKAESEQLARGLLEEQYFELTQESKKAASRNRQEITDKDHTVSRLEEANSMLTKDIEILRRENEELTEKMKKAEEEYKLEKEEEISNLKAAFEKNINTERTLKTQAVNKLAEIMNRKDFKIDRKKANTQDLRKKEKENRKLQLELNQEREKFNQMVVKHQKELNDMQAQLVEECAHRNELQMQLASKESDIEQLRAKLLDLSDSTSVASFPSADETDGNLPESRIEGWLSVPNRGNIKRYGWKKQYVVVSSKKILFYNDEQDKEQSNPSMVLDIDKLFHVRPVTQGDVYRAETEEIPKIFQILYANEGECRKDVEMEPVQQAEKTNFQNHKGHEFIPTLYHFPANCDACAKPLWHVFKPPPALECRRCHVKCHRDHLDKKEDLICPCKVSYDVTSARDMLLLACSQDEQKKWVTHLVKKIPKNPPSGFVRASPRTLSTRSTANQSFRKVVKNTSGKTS

SMILES | Kd
CCCS(=O)(=O)Nc1ccc(F)c(C(=O)c2c[nH]c3ncc(-c4ccc(Cl)cc4)cc23)c1F [VEMURAFENIB] | > 30 µM (inactive)
CC[C@@H]1C(=O)N(C)c2cnc(Nc3ccc(C(=O)N[C@H]4CC[C@H](N5CCN(CC6CC6)CC5)CC4)cc3OC)nc2N1C(C)C [VOLASERTIB] | > 30 µM (inactive)
CCn1c(=O)c(-c2cc[nH]n2)cc2c(C)nc(N)nc21 [VOXTALISIB] | > 30 µM (inactive)

target: T2, ADP/ATP translocase 3 (Homo sapiens, UniProt P12236)
T2 sequence (P12236 whole entry): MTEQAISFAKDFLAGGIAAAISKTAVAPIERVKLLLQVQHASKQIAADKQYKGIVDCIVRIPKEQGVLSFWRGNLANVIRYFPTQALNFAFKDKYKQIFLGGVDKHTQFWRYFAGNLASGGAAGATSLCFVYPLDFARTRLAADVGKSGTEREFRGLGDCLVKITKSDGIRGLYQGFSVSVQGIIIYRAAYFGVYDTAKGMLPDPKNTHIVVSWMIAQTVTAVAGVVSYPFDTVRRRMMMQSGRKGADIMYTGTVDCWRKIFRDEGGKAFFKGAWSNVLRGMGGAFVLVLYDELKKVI

SMILES | Kd
CCCS(=O)(=O)Nc1ccc(F)c(C(=O)c2c[nH]c3ncc(-c4ccc(Cl)cc4)cc23)c1F [VEMURAFENIB] | > 30 µM (inactive)
CC[C@@H]1C(=O)N(C)c2cnc(Nc3ccc(C(=O)N[C@H]4CC[C@H](N5CCN(CC6CC6)CC5)CC4)cc3OC)nc2N1C(C)C [VOLASERTIB] | > 30 µM (inactive)
CCn1c(=O)c(-c2cc[nH]n2)cc2c(C)nc(N)nc21 [VOXTALISIB] | > 30 µM (inactive)

target: Serine/threonine-protein kinase 16 (Homo sapiens, UniProt O75716)
Sequence (O75716 whole entry): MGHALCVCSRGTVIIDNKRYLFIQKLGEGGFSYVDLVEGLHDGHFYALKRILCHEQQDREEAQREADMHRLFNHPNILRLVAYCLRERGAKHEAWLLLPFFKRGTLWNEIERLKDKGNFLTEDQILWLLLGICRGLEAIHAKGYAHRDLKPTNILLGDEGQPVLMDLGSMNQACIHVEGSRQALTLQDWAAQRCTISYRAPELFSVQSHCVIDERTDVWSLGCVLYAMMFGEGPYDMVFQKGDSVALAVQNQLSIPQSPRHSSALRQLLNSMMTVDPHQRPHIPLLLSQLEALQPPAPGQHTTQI

SMILES | Kd
CCCS(=O)(=O)Nc1ccc(F)c(C(=O)c2c[nH]c3ncc(-c4ccc(Cl)cc4)cc23)c1F [VEMURAFENIB] | > 30 µM (inactive)
CC[C@@H]1C(=O)N(C)c2cnc(Nc3ccc(C(=O)N[C@H]4CC[C@H](N5CCN(CC6CC6)CC5)CC4)cc3OC)nc2N1C(C)C [VOLASERTIB] | > 30 µM (inactive)
CCn1c(=O)c(-c2cc[nH]n2)cc2c(C)nc(N)nc21 [VOXTALISIB] | > 30 µM (inactive)

target: Protein-tyrosine kinase 6 (Homo sapiens, UniProt Q13882)
Sequence (Q13882 whole entry): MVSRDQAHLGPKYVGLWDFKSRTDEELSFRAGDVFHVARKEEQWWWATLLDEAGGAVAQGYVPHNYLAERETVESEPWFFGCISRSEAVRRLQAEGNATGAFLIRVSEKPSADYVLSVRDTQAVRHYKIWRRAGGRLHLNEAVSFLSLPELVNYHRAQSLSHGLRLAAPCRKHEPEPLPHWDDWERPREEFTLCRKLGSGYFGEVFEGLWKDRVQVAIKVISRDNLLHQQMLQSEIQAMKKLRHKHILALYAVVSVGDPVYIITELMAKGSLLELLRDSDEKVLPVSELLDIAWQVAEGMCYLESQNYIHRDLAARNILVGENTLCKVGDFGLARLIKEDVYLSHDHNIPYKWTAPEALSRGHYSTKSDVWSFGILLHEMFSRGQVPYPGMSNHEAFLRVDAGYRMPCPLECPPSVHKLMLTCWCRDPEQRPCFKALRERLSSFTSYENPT

SMILES | Kd
CCCS(=O)(=O)Nc1ccc(F)c(C(=O)c2c[nH]c3ncc(-c4ccc(Cl)cc4)cc23)c1F [VEMURAFENIB] | 1.41 µM (active)
CC[C@@H]1C(=O)N(C)c2cnc(Nc3ccc(C(=O)N[C@H]4CC[C@H](N5CCN(CC6CC6)CC5)CC4)cc3OC)nc2N1C(C)C [VOLASERTIB] | > 30 µM (inactive)
CCn1c(=O)c(-c2cc[nH]n2)cc2c(C)nc(N)nc21 [VOXTALISIB] | > 30 µM (inactive)

target: Tyrosine-protein kinase Yes (Homo sapiens, UniProt P07947)
Sequence (P07947 whole entry): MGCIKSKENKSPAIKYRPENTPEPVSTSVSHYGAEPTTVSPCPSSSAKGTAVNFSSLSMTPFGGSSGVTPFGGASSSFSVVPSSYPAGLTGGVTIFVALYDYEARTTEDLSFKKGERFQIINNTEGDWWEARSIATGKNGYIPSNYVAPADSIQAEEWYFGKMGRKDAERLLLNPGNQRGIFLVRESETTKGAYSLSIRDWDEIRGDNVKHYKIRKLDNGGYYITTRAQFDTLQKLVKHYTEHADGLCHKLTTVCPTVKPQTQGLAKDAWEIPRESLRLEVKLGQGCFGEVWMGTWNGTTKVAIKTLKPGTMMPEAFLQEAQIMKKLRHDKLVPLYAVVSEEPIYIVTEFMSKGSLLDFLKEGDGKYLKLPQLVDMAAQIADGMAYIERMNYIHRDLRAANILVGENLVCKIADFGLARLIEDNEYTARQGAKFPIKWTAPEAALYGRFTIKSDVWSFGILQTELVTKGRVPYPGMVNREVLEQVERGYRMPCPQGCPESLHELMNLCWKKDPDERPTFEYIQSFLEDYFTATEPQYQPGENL

SMILES | Kd
CCCS(=O)(=O)Nc1ccc(F)c(C(=O)c2c[nH]c3ncc(-c4ccc(Cl)cc4)cc23)c1F [VEMURAFENIB] | > 30 µM (inactive)
CC[C@@H]1C(=O)N(C)c2cnc(Nc3ccc(C(=O)N[C@H]4CC[C@H](N5CCN(CC6CC6)CC5)CC4)cc3OC)nc2N1C(C)C [VOLASERTIB] | > 30 µM (inactive)
CCn1c(=O)c(-c2cc[nH]n2)cc2c(C)nc(N)nc21 [VOXTALISIB] | > 30 µM (inactive)

target: Mitogen-activated protein kinase kinase kinase kinase 5 (Homo sapiens, UniProt Q9Y4K4)
Sequence (Q9Y4K4 whole entry): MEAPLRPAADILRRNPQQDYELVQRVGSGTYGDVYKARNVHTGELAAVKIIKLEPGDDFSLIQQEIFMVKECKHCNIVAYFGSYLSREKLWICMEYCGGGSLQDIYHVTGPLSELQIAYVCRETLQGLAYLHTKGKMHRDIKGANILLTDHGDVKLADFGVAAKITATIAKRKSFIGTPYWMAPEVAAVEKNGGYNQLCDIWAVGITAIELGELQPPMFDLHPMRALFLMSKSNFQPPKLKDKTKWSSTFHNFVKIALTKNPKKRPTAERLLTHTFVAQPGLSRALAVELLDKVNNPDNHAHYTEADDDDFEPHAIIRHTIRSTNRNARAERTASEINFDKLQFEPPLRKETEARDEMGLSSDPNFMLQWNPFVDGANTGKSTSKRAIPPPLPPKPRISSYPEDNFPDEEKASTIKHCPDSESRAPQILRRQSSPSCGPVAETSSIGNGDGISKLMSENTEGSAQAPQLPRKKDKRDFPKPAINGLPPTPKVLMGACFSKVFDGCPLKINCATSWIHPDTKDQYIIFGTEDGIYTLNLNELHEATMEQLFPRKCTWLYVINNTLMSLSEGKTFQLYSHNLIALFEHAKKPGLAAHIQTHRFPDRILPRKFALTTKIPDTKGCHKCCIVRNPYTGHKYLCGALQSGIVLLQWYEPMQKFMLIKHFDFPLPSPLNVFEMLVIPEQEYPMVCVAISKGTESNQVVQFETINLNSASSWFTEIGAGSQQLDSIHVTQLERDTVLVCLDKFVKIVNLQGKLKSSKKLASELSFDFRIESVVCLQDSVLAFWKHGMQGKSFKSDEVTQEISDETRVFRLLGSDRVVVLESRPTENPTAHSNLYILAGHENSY

SMILES | Kd
CCCS(=O)(=O)Nc1ccc(F)c(C(=O)c2c[nH]c3ncc(-c4ccc(Cl)cc4)cc23)c1F [VEMURAFENIB] | 1.8 µM (active)
CC[C@@H]1C(=O)N(C)c2cnc(Nc3ccc(C(=O)N[C@H]4CC[C@H](N5CCN(CC6CC6)CC5)CC4)cc3OC)nc2N1C(C)C [VOLASERTIB] | > 30 µM (inactive)
CCn1c(=O)c(-c2cc[nH]n2)cc2c(C)nc(N)nc21 [VOXTALISIB] | > 30 µM (inactive)

target: T3, Ras-related protein Rab-27A (Homo sapiens, UniProt P51159)
T3 sequence (P51159 whole entry): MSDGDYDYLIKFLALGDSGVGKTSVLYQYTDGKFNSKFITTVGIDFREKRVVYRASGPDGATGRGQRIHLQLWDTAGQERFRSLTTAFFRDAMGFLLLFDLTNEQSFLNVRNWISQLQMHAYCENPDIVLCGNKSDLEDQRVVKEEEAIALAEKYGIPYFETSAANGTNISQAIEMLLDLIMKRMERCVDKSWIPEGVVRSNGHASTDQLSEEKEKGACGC

SMILES | Kd
CCCS(=O)(=O)Nc1ccc(F)c(C(=O)c2c[nH]c3ncc(-c4ccc(Cl)cc4)cc23)c1F [VEMURAFENIB] | > 30 µM (inactive)
CC[C@@H]1C(=O)N(C)c2cnc(Nc3ccc(C(=O)N[C@H]4CC[C@H](N5CCN(CC6CC6)CC5)CC4)cc3OC)nc2N1C(C)C [VOLASERTIB] | > 30 µM (inactive)
CCn1c(=O)c(-c2cc[nH]n2)cc2c(C)nc(N)nc21 [VOXTALISIB] | > 30 µM (inactive)

target: Ras-related protein Rab-6A (Homo sapiens, UniProt P20340)
Sequence (P20340 whole entry): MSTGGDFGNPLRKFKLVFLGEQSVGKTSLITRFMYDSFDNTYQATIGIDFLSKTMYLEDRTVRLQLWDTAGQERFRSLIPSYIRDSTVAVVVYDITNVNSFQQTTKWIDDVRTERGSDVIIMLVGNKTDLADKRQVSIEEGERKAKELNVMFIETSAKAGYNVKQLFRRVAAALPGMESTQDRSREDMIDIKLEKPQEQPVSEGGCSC

SMILES | Kd
CCCS(=O)(=O)Nc1ccc(F)c(C(=O)c2c[nH]c3ncc(-c4ccc(Cl)cc4)cc23)c1F [VEMURAFENIB] | > 30 µM (inactive)
CC[C@@H]1C(=O)N(C)c2cnc(Nc3ccc(C(=O)N[C@H]4CC[C@H](N5CCN(CC6CC6)CC5)CC4)cc3OC)nc2N1C(C)C [VOLASERTIB] | > 30 µM (inactive)
CCn1c(=O)c(-c2cc[nH]n2)cc2c(C)nc(N)nc21 [VOXTALISIB] | > 30 µM (inactive)

target: T4, Interleukin-1 receptor-associated kinase 3 (Homo sapiens, UniProt Q9Y616)
T4 sequence (Q9Y616 whole entry): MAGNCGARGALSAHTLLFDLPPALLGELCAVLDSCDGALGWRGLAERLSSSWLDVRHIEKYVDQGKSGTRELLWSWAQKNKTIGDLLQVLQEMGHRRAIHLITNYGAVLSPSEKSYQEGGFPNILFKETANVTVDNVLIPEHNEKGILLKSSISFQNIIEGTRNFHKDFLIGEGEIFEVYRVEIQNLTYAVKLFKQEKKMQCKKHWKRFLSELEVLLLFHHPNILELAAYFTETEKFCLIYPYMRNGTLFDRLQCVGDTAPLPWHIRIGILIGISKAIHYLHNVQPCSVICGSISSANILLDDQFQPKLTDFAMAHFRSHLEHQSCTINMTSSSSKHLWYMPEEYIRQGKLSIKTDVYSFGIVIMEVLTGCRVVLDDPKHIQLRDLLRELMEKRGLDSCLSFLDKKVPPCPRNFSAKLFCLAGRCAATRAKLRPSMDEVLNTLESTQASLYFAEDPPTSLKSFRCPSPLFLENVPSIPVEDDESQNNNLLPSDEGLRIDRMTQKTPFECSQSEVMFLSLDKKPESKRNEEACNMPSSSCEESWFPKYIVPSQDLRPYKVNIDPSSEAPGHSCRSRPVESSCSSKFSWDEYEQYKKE

SMILES | Kd
CCCS(=O)(=O)Nc1ccc(F)c(C(=O)c2c[nH]c3ncc(-c4ccc(Cl)cc4)cc23)c1F [VEMURAFENIB] | > 30 µM (inactive)
CC[C@@H]1C(=O)N(C)c2cnc(Nc3ccc(C(=O)N[C@H]4CC[C@H](N5CCN(CC6CC6)CC5)CC4)cc3OC)nc2N1C(C)C [VOLASERTIB] | > 30 µM (inactive)
CCn1c(=O)c(-c2cc[nH]n2)cc2c(C)nc(N)nc21 [VOXTALISIB] | > 30 µM (inactive)

target: T5, Ferrochelatase, mitochondrial (Homo sapiens, UniProt P22830)
T5 sequence (P22830 whole entry): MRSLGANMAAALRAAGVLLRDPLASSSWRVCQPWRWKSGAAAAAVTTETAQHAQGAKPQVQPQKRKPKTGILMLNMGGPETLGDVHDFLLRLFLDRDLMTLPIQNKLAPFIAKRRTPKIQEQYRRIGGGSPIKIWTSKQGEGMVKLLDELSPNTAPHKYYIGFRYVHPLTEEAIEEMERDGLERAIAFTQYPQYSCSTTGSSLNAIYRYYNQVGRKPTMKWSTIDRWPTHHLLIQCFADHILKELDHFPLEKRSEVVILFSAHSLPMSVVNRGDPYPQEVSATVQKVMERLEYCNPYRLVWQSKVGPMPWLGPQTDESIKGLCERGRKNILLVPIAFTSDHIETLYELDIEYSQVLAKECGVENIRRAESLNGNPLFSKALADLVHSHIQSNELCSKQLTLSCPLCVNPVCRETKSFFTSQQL

SMILES | Kd
CCCS(=O)(=O)Nc1ccc(F)c(C(=O)c2c[nH]c3ncc(-c4ccc(Cl)cc4)cc23)c1F [VEMURAFENIB] | 1.42 µM (active)
CC[C@@H]1C(=O)N(C)c2cnc(Nc3ccc(C(=O)N[C@H]4CC[C@H](N5CCN(CC6CC6)CC5)CC4)cc3OC)nc2N1C(C)C [VOLASERTIB] | > 30 µM (inactive)
CCn1c(=O)c(-c2cc[nH]n2)cc2c(C)nc(N)nc21 [VOXTALISIB] | > 30 µM (inactive)

target: Mitotic checkpoint serine/threonine-protein kinase BUB1 (Homo sapiens, UniProt O43683)
Sequence (O43683 whole entry): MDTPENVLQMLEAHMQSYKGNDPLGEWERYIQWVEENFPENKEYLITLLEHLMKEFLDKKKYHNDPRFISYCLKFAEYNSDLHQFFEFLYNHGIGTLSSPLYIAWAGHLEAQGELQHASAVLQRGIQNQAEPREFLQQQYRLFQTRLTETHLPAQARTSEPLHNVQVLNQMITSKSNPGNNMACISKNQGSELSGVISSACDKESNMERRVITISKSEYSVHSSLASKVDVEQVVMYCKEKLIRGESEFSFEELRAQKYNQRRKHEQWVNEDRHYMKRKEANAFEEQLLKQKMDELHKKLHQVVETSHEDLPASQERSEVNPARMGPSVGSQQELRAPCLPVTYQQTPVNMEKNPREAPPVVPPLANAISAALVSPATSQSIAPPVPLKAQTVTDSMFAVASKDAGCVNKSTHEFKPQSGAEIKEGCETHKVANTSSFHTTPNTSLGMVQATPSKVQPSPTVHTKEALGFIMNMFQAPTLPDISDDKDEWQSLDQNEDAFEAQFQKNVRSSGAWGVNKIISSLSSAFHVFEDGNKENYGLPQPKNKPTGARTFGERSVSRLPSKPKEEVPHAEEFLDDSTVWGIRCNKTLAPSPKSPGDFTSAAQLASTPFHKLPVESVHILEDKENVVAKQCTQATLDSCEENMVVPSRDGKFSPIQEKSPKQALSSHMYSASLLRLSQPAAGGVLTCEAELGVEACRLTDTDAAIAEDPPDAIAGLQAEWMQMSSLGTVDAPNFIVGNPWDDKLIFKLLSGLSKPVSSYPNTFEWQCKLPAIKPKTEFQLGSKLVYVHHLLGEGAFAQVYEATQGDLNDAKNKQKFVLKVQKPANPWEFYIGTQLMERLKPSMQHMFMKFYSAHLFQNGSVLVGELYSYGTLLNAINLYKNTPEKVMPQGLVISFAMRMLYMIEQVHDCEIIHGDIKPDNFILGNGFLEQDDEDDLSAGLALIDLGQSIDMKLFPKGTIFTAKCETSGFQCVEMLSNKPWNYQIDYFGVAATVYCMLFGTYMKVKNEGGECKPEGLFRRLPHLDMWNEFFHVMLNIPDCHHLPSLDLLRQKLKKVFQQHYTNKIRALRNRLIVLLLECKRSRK

SMILES | Kd
CCCS(=O)(=O)Nc1ccc(F)c(C(=O)c2c[nH]c3ncc(-c4ccc(Cl)cc4)cc23)c1F [VEMURAFENIB] | > 30 µM (inactive)
CC[C@@H]1C(=O)N(C)c2cnc(Nc3ccc(C(=O)N[C@H]4CC[C@H](N5CCN(CC6CC6)CC5)CC4)cc3OC)nc2N1C(C)C [VOLASERTIB] | > 30 µM (inactive)
CCn1c(=O)c(-c2cc[nH]n2)cc2c(C)nc(N)nc21 [VOXTALISIB] | > 30 µM (inactive)
